# Laboratory results published in US20170152239A1, “BENZAMIDE AND HETEROBENZAMIDE COMPOUNDS” (PFIZER INC., priority 2012, published 2017).
# Molecular target: WT EZH2 (EZH2 4 protein complex: EZH2, EED, SUZ12, RbAp48) (Homo sapiens, UniProt O75530+Q09028+Q15022+Q15910)
# Test: WT EZH2 nucleosome assay
# Type: biochemical
# Conditions: nucleosome assay, 5 nM EZH2 4-protein complex, 1.5 μM SAM; read-out: WT EZH2 IC50
# Method: Nucleosome Assay Protocol:
# A. Compound preparation • 1. Prepare 10 mM stock solutions in 100% DMSO from solid material • 2. Serial dilute 10 mM compound stocks either 2 or 3-fold in 100% DMSO to generate compounds for 11 point dose response
# B. Reagent preparation • 1. Prepare 1× assay buffer containing 100 mM Tris pH 8.5, 4 mM DTT and 0.01% Tween-20 • 2. Dilute purified HeLA oligonucleosomes and recombinant histone H1 (New England Biolabs) in assay buffer to 1.67×. • 3. Dilute EZH2 4 protein complex (EZH2, EED, SUZ12, RbAp48) to 3.5× in assay buffer • 4. Prepare 10×^3H SAM solution in assay buffer using 0.94 μCi/well of radioactive SAM (Perkin Elmer) and sufficient non-labeled SAM (Sigma) for 1.5 μM final concentration. • 5. Dilute TCA to 20% in DI water
# C. Enzyme reaction • 1. Final reaction conditions are 5 nM EZH2 4-protein complex, 1.5 μM SAM, 25 μg/mL oligonucleosomes, 50 nM rH1 in a 50 μl reaction volume. • 2. Add 1 μl of diluted compound to the assay plate (96-well V-bottom polypropylene plates) or 1 μl of DMSO for control wells. • 3. Add 30 μl of nucleosomes to the assay plate • 4. Add 14 μl of EZH2 4 protein complex to the assay plate • 5. Add 5 μl of ^3H SAM to start the reaction. • 6. Stop the reaction after 60 minutes with the addition of 100 μl of 20% TCA • 7. Transfer 150 μl of quenched reaction into a prepared filterplate (Millipore #MSIPN4B10) • 8. Apply vacuum to the filterplate to filter the reaction mix through the membrane. • 9. Wash the filterplate with 8×200 μl of PBS, blot dry and dry in an oven for 30 minutes • 10. Add 50 μl of microscint-20 scintillation fluid (Perkin Elmer) to each well, wait 30 minutes and count on a liquid scintillation counter.
# D. Data analysis • 1. IC50 values were determined by fitting the data to a 4-parameter IC50 equation using proprietary curve fitting software.
# Wild type (WT) EZH2% Effect at 20 μM and IC50 values (μM) generated in WT EZH2 or EZH2PRC2 mutant Y641N nucleosome assays are provided in Table 3 below. A blank entry in the table indicates the data was not generated in that assay.
# WT EZH2 (EZH2 4 protein complex: EZH2, EED, SUZ12, RbAp48), sequence (Q15910 whole entry): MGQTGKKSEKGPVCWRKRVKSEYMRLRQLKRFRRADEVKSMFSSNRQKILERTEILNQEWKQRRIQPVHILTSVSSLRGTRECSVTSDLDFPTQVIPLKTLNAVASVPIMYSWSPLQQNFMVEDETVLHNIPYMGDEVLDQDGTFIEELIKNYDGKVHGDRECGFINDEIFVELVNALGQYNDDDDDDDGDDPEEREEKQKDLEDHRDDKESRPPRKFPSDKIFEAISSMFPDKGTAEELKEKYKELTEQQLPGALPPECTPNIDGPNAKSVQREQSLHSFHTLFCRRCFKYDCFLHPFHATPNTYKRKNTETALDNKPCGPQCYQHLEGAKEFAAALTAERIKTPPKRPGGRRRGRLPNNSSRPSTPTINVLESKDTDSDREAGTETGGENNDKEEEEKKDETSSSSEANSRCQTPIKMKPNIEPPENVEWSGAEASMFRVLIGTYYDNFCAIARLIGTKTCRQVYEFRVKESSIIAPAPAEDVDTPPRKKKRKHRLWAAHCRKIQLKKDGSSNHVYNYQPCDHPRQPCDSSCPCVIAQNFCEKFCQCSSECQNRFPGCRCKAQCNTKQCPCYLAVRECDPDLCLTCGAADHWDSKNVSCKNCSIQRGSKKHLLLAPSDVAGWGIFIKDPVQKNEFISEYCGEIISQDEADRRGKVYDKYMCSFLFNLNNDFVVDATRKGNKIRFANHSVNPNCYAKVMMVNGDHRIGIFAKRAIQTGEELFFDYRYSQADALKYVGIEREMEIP
# WT EZH2 (EZH2 4 protein complex: EZH2, EED, SUZ12, RbAp48), sequence (O75530 whole entry partner): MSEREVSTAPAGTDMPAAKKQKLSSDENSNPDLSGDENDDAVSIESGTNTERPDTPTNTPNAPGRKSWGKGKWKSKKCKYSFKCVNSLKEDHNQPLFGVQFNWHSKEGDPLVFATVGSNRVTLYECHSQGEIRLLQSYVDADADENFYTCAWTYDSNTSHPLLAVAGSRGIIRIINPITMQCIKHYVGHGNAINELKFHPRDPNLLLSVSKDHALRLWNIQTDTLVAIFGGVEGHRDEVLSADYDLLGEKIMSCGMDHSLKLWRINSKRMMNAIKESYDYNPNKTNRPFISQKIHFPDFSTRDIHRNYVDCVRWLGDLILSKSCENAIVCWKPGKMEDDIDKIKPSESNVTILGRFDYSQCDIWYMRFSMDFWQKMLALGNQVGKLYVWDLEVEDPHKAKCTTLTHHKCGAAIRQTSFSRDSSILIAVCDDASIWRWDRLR
# WT EZH2 (EZH2 4 protein complex: EZH2, EED, SUZ12, RbAp48), sequence (Q15022 whole entry partner): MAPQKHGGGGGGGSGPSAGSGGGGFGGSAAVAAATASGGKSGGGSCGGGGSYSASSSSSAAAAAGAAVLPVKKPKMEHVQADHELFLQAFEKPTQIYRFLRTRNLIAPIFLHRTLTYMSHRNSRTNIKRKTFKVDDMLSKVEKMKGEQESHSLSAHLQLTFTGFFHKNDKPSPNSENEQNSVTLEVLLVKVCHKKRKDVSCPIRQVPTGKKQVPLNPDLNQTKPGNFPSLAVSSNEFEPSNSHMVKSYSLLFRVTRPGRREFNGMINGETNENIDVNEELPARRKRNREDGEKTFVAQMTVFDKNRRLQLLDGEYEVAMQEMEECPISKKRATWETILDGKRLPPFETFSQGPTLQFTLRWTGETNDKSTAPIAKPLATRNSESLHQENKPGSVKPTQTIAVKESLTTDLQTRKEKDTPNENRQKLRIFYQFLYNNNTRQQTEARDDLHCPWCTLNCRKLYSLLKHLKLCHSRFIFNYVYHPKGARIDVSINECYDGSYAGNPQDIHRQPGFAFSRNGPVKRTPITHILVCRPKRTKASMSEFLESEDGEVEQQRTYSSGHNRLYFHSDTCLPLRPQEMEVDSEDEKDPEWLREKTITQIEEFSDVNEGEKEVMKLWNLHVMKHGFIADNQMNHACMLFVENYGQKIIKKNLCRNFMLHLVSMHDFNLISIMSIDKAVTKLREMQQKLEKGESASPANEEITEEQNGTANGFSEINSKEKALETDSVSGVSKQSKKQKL
# WT EZH2 (EZH2 4 protein complex: EZH2, EED, SUZ12, RbAp48), sequence (Q09028 whole entry partner): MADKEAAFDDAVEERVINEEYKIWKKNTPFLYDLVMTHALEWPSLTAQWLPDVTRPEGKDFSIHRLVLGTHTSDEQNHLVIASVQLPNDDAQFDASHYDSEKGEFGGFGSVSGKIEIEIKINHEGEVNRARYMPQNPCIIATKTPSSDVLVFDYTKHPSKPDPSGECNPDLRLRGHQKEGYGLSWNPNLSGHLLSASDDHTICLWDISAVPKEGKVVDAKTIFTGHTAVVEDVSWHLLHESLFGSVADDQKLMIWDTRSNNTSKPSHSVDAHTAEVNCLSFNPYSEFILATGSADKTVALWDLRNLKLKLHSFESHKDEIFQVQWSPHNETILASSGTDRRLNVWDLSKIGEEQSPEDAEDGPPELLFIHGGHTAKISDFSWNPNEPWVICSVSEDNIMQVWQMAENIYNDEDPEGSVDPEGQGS
row,SMILES,IC50
1,"Cc1cc(C)c(CNC(=O)c2nc(N3CCOCC3)nc(N3CCC[C@@H]3C)c2C)c(=O)[nH]1 [Example 81, N-[(4,6-dimethyl-2-oxo-1,2-dihydropyridin-3-yl)methyl]-5-methyl-6-[(2S)-2-methylpyrroli-din-1-yl]-2-morpholin-4-ylpyrimidine-4-carboxamide]",7.74 µM
2,"Cc1[nH]c(=O)c(CNC(=O)c2cc(Cl)cc(-c3ccnn3C)c2C)c2c1CCCC2 [Example 84, 5-chloro-2-methyl-N-[(1-methyl-3-oxo-2,3,5,6,7,8-hexahydroiso-quinolin-4-yl)methyl]-3-(1-methyl-1H-pyrazol-5-yl)benzamide]",8.14 µM
3,"Cc1cc(C)c(CNC(=O)c2nc(N3CCCC3)nc(-c3ccnn3C)c2C)c(=O)[nH]1 [Example 92, N-[(4,6-dimethyl-2-oxo-1,2-dihydropyridin-3-yl)methyl]-5-methyl-6-(1-methyl-1H-pyrazol-5-yl)-2-pyrrolidin-1-ylpyrimidine-4-carboxamide]",12.8 µM
4,"Cc1cc(C)c(CNC(=O)c2nc(O[C@@H]3CCOC3)nc(-c3ccnn3C)c2C)c(=O)[nH]1 [Example 93, N-[(4,6-dimethyl-2-oxo-1,2-dihydropyridin-3-yl)methyl]-5-methyl-6-(1-methyl-1H-pyrazol-5-yl)-2-[(3R)-tetrahydro-furan-3-yloxy]pyrimi-dine-4-carboxamide]",14.5 µM
5,"CCC1CCCN1c1ncnc(C(=O)NCc2c(C)cc(C)[nH]c2=O)c1C (centres unmarked) [Example 95, N-[(4,6-dimethyl-2-oxo-1,2-dihydropyridin-3-yl)methyl]-6-(2-ethylpyrrolidin-1-yl)-5-methylpyrimi-dine-4-carboxamide]",16.5 µM
6,"Cc1cc(C)c(CNC(=O)c2nc(N(C)C)nc(N3CCC[C@@H]3C)c2C)c(=O)[nH]1 [Example 96, 2-(dimethylamino)-N-[(4,6-dimethyl-2-oxo-1,2-dihydropyridin-3-yl)methyl]-5-methyl-6-[(2S)-2-methyplyrrolidin-1-yl]pyrimidine-4-carboxamide]",16.5 µM
7,"Cc1cc(C)c(CNC(=O)c2nc(OCCN3CCC(F)(F)CC3)nc(-c3ccnn3C)c2C)c(=O)[nH]1 [Example 98, 2-[2-(4,4-difluoropiperi-din-1-yl)ethoxy]-N-[(4,6-dimethyl-2-oxo-1,2-dihydropyridin-3-yl)methyl]-5-methyl-6-(1-methyl-1H-pyrazol-5-yl)pyrimidine-4-carboxamide]",17.3 µM
8,"Cc1cc(C)c(CNC(=O)c2nc(OC(C)C)nc(-c3ccnn3C)c2C)c(=O)[nH]1 [Example 100, N-[(4,6-dimethyl-2-oxo-1,2-dihydropyridin-3-yl)methyl]-2-isopropoxy-5-methyl-6-(1-methyl-1H-pyrazol-5-yl)pyrimidine-4-carboxamide]",17.6 µM
9,"Cc1cc(C)c(CNC(=O)c2nc(-c3cnn(C)c3)nc(N3CCOC[C@@H]3C)c2C(F)(F)F)c(=O)[nH]1 [Example 104, N-[(4,6-dimethyl-2-oxo-1,2-dihydropyridin-3-yl)methyl]-6-[(3S)-3-methylmorpho-lin-4-yl]-2-(1-methyl-1H-pyrazol-4-yl)-5-(trifluoromethyl) pyrimidine-4-carboxamide]",19.4 µM
10,"Cc1cc(C)c(CNC(=O)c2ncnc(N3CC[C@H](C)C3)c2C)c(=O)[nH]1 [Example 107, N-[(4,6-dimethyl-2-oxo-1,2-dihydropyridin-3-yl)methyl]-5-methyl-6-[(3S)-3-methylpyrrolidin-1-yl]pyrimidine-4-carboxamide]",21.8 µM
11,"Cc1cc(C)c(CNC(=O)c2nccc(-c3ccnn3C)c2C)c(=O)[nH]1 [Example 110, N-[(4,6-dimethyl-2-oxo-1,2-dihydropyridin-3-yl)methyl]-3-methyl-4-(1-methyl-1H-pyrazol-5-yl)pyridine-2-carboxamide]",23.2 µM
12,"Cc1cc(C)c(CNC(=O)c2cccc(-n3cnnc3C)c2C)c(=O)[nH]1 [Example 111, N-[(4,6-dimethyl-2-oxo-1,2-dihydropyridin-3-yl)methyl]-2-methyl-3-(3-methyl-4H-1,2,4-triazol-4-yl)benzamide]",24.8 µM
13,"Cc1cc(C)c(CNC(=O)c2ncnc(N3CCCC3C(C)C)c2C)c(=O)[nH]1 (centres unmarked) [Example 112, N-[(4,6-dimethyl-2-oxo-1,2-dihydropyridin-3-yl)methyl]-6-(2-isopropylpyrroli-din-1-yl)-5-methylpyrimidine-4-carboxamide]",25.3 µM

# Next, values leading:
row,IC50,SMILES
1,7.96 µM,"Cc1cc(C)c(CNC(=O)c2ncnc(N3C4CCC3CC4)c2C)c(=O)[nH]1 [Example 83, 6-(7-azabicyclo[2.2.1]hept-7-yl)-N-[(4,6-dimethyl-2-oxo-1,2-dihydropyridin-3-yl)methyl]-5-methyl-pyrimidine-4-carobxamide]"
2,9.76 µM,"Cc1cc(C)c(CNC(=O)c2ccnc(OC(C)C)c2C)c(=O)[nH]1 [Example 87, N-[(4,6-dimethyl-2-oxo-1,2-dihydropyridin-3-yl)methyl]-2-isopropxy-3-methylisonico-tinamide]"
3,12 µM,"Cc1cc(C)c(CNC(=O)c2nc(OCCO)nc(-c3ccnn3C)c2C)c(=O)[nH]1 [Example 90, N-[(4,6-dimethyl-2-oxo-1,2-dihydropyridin-3-yl)methyl]-2-(2-hydroxyethoxy)-5-methyl-6-(1-methyl-1H-pyrazol-5-yl)pyrimidine-4-carboxamide]"
4,12.1 µM,"Cc1cc(C)c(CNC(=O)c2ccnc(-c3ccnn3C)c2Cl)c(=O)[nH]1 [Example 91, 3-chloro-N-[(4,6-dimethyl-2-oxo-1,2-dihydropyridin-3-yl)methyl]-2-(1-methyl-1H-pyrazol-5-yl)isonicotin-amide]"
5,16 µM,"Cc1cc(C)c(CNC(=O)c2nc(C3CC3)nc(-c3ccnn3C)c2C)c(=O)[nH]1 [Example 94, 2-cyclopropyl-N-[(4,6-dimethyl-2-oxo-1,2-dihydropyridin-3-yl)methyl]-5-methyl-6-(1-methyl-1H-pyrazol-5-yl)pyrimidine-4-carboxamide]"
6,16.9 µM,"Cc1cc(C)c(CNC(=O)c2ccnc(N3[C@H](C)CC[C@@H]3C)c2Cl)c(=O)[nH]1 [Example 97, 3-chloro-N-[(4,6-dimethyl-2-oxo-1,2-dihydropyridin-3-yl)methyl]-2-[(2R,5S)-2,5-dimethylpyrroli-din-1-yl]iso-nicotinamide]"
7,17.6 µM,"Cc1cc(C(=O)NCc2c(C)cc(C)[nH]c2=O)c(C#N)c(OC(C)C)n1 [Example 99, 3-cyano-N-[(4,6-dimethyl-2-oxo-1,2-dihydropyridin-3-yl)methyl]-2-isopropoxy-6-methyliso-nicotinamide]"
8,18.4 µM,"Cc1cc(C)c(CNC(=O)c2nc(OCCN3CC[C@H](F)C3)nc(-c3ccnn3C)c2C)c(=O)[nH]1 [Example 101, N-[(4,6-dimethyl-2-oxo-1,2-dihydropyridin-3-yl)methyl]-2-{2-[(3S)-3-fluoropyrrolidin-1-yl]ethoxy}-5-methyl-6-(1-methyl-1H-pyrazol-5-yl)pyrimidine-4-carboxamide]"
9,18.6 µM,"CCOc1nc(C(=O)NCc2c(C)cc(C)[nH]c2=O)c(C)c(-c2ccnn2C)n1 [Example 102, N-[(4,6-dimethyl-2-oxo-1,2-dihydropyridin-3-yl)methyl]-2-ethoxy-5-methyl-6-(1-methyl-1H-pyrazol-5-yl)pyrimidine-4-carboxamide]"
10,19.1 µM,"Cc1cc(C)c(CNC(=O)c2nc(OCCN3CC[C@@H](F)C3)nc(-c3ccnn3C)c2C)c(=O)[nH]1 [Example 103, N-[(4,6-dimethyl-2-oxo-1,2-dihydropyridin-3-yl)methyl]-2-{2-[(3R)-3-fluoropyrrolidin-1-yl]ethoxy}-5-methyl-6-(1-methyl-1H-pyrazol-5-yl)pyrimidine-4-carboxamide]"
11,19.8 µM,"Cc1cc(C)c(CNC(=O)c2nc(OCCN3CCC(F)(F)C3)nc(-c3ccnn3C)c2C)c(=O)[nH]1 [Example 105, 2-[2-(3,3-difluoropyrroli-din-1-yl)ethoxy]-N-[(4,6-dimethyl-2-oxo-1,2-dihydropyridin-3-yl)methyl]-5-methyl-6-(1-methyl-1H-pyrazol-5-yl)pyrimidine-4-carboxamide]"
12,22.2 µM,"COc1nc(C(=O)NCc2c(C)cc(C)[nH]c2=O)c(C)c(-c2ccnn2C)n1 [Example 108, N-[(4,6-dimethyl-2-oxo-1,2-dihydropyridin-3-yl)methyl]-2-methoxy-5-methyl-6-(1-methyl-1H-pyrazol-5-yl)pyrimidine-4-carboxamide]"
13,23 µM,"Cc1cc(C)c(CNC(=O)c2nc(OCCN3CC(F)C3)nc(-c3ccnn3C)c2C)c(=O)[nH]1 [Example 109, N-[(4,6-dimethyl-2-oxo-1,2-dihydropyridin-3-yl)methyl]-2-[2-(3-fluoroazetidin-1-yl)ethoxy]-5-methyl-6-(1-methyl-1H-pyrazol-5-yl)pyrimidine-4-carboxamide]"
